# Experimental data from patent US9359418B2, “Inhibitors of the T cell-specific alternative p38 activation pathway and methods of use” (The United States of America, as represented by the …, priority 2012, dated 2016).
# Experiments:
# CD4+ T cells = assay: Cellular uptake of FITC conjugated peptides by purified CD4+ T cells; assay type: cell-based; details: FITC conjugated peptide, 2 hours at 37° C., flow cytometry
# Procedure: FIG. 1 is a graph showing cellular uptake of (11R)-71-85 and (11R)-Ctrl. Purified CD4^+ T cells were treated with either FITC conjugated (11R)-71-85 or (11R)-Ctrl, or left untreated for 2 hours at 37° C. After incubation, cells were washed and analyzed by flow cytometry for FITC positivity.
# To generate a cell-permeable form of the Gadd45α 71-85 peptide, 11 arginine residues were added to the N-terminus to produce a fusion protein referred to herein as (11R)-71-85. Cell-permeability of (11R)-71-85 was tested using purified CD4^+ T cells. (11R)-71-85 and a control peptide fused to 11 arginine residues (referred to as (11R)-Ctrl) were FITC conjugated. Purified CD4^+ T cells were treated with either FITC conjugated (11R)-71-85 or (11R)-Ctrl, or left untreated for 2 hours at 37° C. After incubation, cells were washed and analyzed by flow cytometry for FITC positivity.
# T cells = assay: Inflammatory cytokine production by T cells (flow cytometry); assay type: cell-based
# From the text: FIGS. 4A-4B are a series flow cytometry plots showing inflammatory cytokine secretion by CD4^+ (FIG. 4A) and CD8^+ (FIG. 4B) T cells. T cells were purified from spleen and stimulated with anti-CD3 plus anti-CD28 for 3 days. Cells were then left unstimulated overnight and treated with the indicated concentrations of (11R)-71-85, control peptide (11R)-Ctrl, or DMSO (no peptide). After treatment, cells were restimulated with either anti-CD3 plus anti-CD28, or PMA plus ionomycin supplemented with monensin. Cytokine expression was measured by flow-cytometry.
# To evaluate cytokine production, T cells were purified from spleen and stimulated with anti-CD3 plus anti-CD28 for 3 days. Cells were then left unstimulated overnight and treated with 1 or 2 μM (11R)-71-85 or control peptide (11R)-Ctrl, or with DMSO only. After treatment, cells were restimulated with either anti-CD3 plus anti-CD28 (to stimulate the TCR and the alternative p38 pathway), or PMA plus ionomycin supplemented with monensin (to stimulate the classical p38 pathway). Cytokine expression was measured by flow-cytometry.
# Irf4 mRNA = Irf4 mRNA in splenocytes after intraperitoneal injection; assay type: in vivo, mice; details: 40 μg intraperitoneally; splenocytes 4 hours after injection, anti-CD3 plus anti-CD28 24 hours; versus vehicle control
# Procedure: FIG. 7 is a graph showing expression of interferon regulatory factor 4 (Irf4) mRNA following in vivo treatment with (11R)-71-85. (11R)-71-85 (40 μg) or vehicle control was injected intraperitoneally into wild type mice. Four hours after injection, splenocytes were collected and stimulated with soluble anti-CD3 plus anti-CD28 for 24 hours. Irf4 mRNA expression was assessed by quantitative real time PCR.
# (11R)-71-85 (40 μg) or vehicle control was injected intraperitoneally into wild type mice. Four hours after injection, splenocytes were collected and stimulated with soluble anti-CD3 plus anti-CD28 for 24 hours. Irf4 mRNA expression was assessed by quantitative real time PCR.
# PANC02 tumors = assay: PANC02 pancreatic tumor model, tumor growth after intra-tumor injection; assay type: in vivo, mice; details: relative to control animals
# Procedure: FIGS. 9A-9C show injection of (11R)-71-85 stops the growth of established PANC02 tumors. WT C57BL/6 mice were injected with 7.5×10^5 PANC02 cells. After 16 days, mice received intra-tumor injections of (11R)-71-85 at the indicated amount or DMSO every other day. (FIG. 9A) Tumor volume from the start of injection (day 16) to day 42 in control mice and mice injected with 40 μg or 80 μg of (11R)-71-85. Sacrifice (sac.) of mice before day 42 is indicated. (FIG. 9B) weight and (FIG. 9C) appearance of the control (left) and treated (right) tumors on day 38.
# The p38 MAPK has been implicated in the growth of some tumors that cause local inflammatory responses, such as pancreatic cancer. Therefore, (11R)-71-85 was tested in a pancreatic tumor model. WT C57BL/6 mice were injected with 7.5×10^5 PANC02 cells. After 16 days, mice received intra-tumor injections of 40 μg or 80 μg (11R)-71-85 or DMSO every other day. Tumor volume from the start of injection (day 16) to day 42 in control mice and mice injected with (11R)-71-85 or DMSO was determined (FIG. 9A). Weight (FIG. 9B) and appearance (FIG. 9C) of the control and treated tumors were assessed on day 38.
# [1] = test system: tumor-infiltrating T cells; assay: KPC mice, intracellular TNF-α of tumor infiltrating cells after intraperitoneal injection; assay type: in vivo; details: 80 μg intraperitoneal every other day for 1 month
# Procedure: FIG. 12 is a panel of flow cytometry plots showing that intraperitoneal injection of (11R)-71-85 inhibits TNF-α secretion from tumor-infiltrating T cells from KPC mice. KPC mice are genetically engineered to develop pancreatic cancer because of oncogene expression and p53 haploinsufficiency. KPC mice received intraperitoneal injections of 80 μg of either (11R)-71-85 or (11R)-Scrambled every other day for 1 month. Twenty-four hours after the last injection, tumor infiltrating cells were harvested and restimulated with PMA and ionomycin, or left unstimulated, in the presence of Golgi inhibitor for 4 hours. Expression of intracellular TNF-α was determined by flow cytometry.
# A second murine model of pancreatic cancer was used to evaluate the effect of (11R)-71-85 on cytokine secretion by tumor cells. KPC mice are genetically engineered to develop pancreatic cancer because of oncogene expression and p53 haploinsufficiency. KPC mice were administered 80 μg of either (11R)-71-85 or (11R)-Scrambled by intraperitoneal injection every other day for 1 month. Twenty-four hours after the last injection, tumor infiltrating cells were harvested and restimulated with PMA and ionomycin, or left unstimulated, in the presence of Golgi inhibitor for 4 hours. Expression of intracellular TNF-α was determined by flow cytometry (FIG. 12).
substance,measurement,setting,value
"(11R)-71-85: fusion protein: 11 arginine residues added to the N-terminus of the Gadd45α 71-85 peptide (LQIHFTLIQAFCCEN; N-terminal 11 arginine; UniProt P24522 71-85, looked up, fragment)",cellular uptake (FITC positivity),CD4+ T cells,taken up by the T cells
same,"inhibition of production of TNF-α and IFN-γ, 2 μM compared with 1 μM",T cells; 2 μM versus 1 μM,to a greater extent
same,cytokine production in response to PMA plus ionomycin,"T cells; 1 or 2 μM, restimulated with PMA plus ionomycin",no significant effect
same,production of TNF-α in response to TCR stimulation,"T cells; 1 or 2 μM, restimulated with anti-CD3 plus anti-CD28",inhibits
same,Irf4 mRNA expression,Irf4 mRNA,significantly inhibited
same,tumor volume,PANC02 tumors; 40 μg or 80 μg intra-tumor every other day from day 16 to day 42,significantly decreased
same,tumor weight,"PANC02 tumors; intra-tumor injection every other day, day 38",significantly decreased
same,TNF-α secretion by tumor-infiltrating T cells,[1],inhibits
